In general, IC50 refers to the point on the concentration scale where inhibition reaches its midpoint.

The values that follow come from BindingDB's records for patent US20250059213 (Pretzel Therapeutics, 2025).

The target of this experiment is T1, Lon protease homolog, mitochondrial (Homo sapiens, UniProt P36776).
T1 sequence (P36776 whole entry): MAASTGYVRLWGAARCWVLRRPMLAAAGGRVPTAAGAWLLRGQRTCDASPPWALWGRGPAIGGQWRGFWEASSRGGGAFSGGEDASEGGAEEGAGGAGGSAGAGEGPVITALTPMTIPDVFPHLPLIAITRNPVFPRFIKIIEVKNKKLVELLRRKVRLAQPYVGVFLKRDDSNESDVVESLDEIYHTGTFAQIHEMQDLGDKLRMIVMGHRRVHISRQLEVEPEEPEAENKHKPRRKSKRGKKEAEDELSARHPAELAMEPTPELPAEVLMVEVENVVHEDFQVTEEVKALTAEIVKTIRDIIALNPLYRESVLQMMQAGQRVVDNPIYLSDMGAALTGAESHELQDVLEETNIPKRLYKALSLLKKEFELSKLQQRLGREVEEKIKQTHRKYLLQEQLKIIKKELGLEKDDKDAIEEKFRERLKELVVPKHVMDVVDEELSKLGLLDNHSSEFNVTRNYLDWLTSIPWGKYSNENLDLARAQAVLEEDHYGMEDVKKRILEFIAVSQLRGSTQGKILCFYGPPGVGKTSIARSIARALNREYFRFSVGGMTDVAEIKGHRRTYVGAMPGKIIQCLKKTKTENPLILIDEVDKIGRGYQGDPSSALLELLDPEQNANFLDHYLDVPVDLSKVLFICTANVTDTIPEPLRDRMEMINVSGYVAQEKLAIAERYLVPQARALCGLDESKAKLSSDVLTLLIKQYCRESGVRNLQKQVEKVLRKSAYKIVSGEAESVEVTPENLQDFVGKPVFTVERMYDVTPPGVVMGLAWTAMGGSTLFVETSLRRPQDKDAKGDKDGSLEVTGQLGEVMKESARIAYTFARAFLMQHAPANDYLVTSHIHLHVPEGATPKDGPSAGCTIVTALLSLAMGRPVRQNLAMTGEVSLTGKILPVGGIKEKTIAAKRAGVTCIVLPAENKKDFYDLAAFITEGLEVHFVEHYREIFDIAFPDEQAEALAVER
Nature of the experiment: FRET-Based Assay. As for the experimental part:
The LONP1-containing mix (10 μL) was incubated with the test compound for 15 min at 37° C. before adding the peptide-containing mix (5 μL). Solutions were dispensed using a small cassette-Multidrop Combi (Thermo Scientific).

For `COCC[C@@H](NC(=O)c1cnccn1)C(=O)N[C@@H](CCCc1ccccc1)B(O)O` [US20250059213, Compound 13], the IC50 was less than 50 nM.
